What was measured:
[1] = Energy balance (carcass energy content, energy intake, energy expenditure) of treated male Wistar rats; format: in vivo; settings: 10-day treatment; for changes in energy expenditure versus control group (in words): estimated as energy intake minus accrual; for loss of body energy: oleoyl-estrone 10 micromol/kg daily gavage, CL-316243 1 mg/kg daily s.c. infusion; for decrease in food consumption: versus control group
Excerpt: (§1) Forty-five day-old male Wistar rats were used. The rats were kept in collective cages in a light cycle, temperature, and humidity-controlled environment. They were fed tap water and a self-selected cafeteria diet (containing an excess of tasty, energy-dense foods, as well as standard chow) for 45 additional days. Then they were subjected to a 5-day diet adaptation period, in which they had rat chow as the sole food available. At this point, the rats weighed 350-370 g and had significant amounts of body fat. Maintaining the availability of rat chow (daily consumption by the group was recorded) and tap water, body weight was recorded daily. The animals were given a daily gavage of either 0.2 mL of sunflower oil or the same vehicle containing oleoyl-estrone to a daily dose of 10 micromol/kg of body weight.
(§2) This standard feeding and drug administration schedule was complemented by treating one half of the animals receiving only oil and one half of the animals receiving oil and oleoyl-estrone with a daily dose of 1 mg/kg of CL-316243, a beta-3 adrenergic agonist. This drug was continuously administered by means of subcutaneous infusion using Alzet osmotic minipumps (model 2002; 0.5 microliter/h) loaded with drug dissolved in saline. The minipumps were inserted subcutaneously in the dorsal lumbar area of the experimental animals by means of a short cut in the skin. The pumps were tested before their implantation, and the fluid remaining in the minipumps was later measured in order to check the effectiveness of the infusion.
(§3) The treatment was maintained up to 10 days, when the animals were killed by decapitation, and their blood and carcass were used for analyses.
(§4) Samples of the rat paste were dried and used for the estimation of their caloric content using a bomb calorimeter. The initial values for lipid content were calculated from the corresponding in vivo body weights at the beginning of the experiment and applying to all the animals the mean percentage of lipid content found in the control (vehicle only) group at the end of the experiment. This same procedure was used to determine the overall energy content of the carcasses by using the experimentally found energy content of the rats in the control group. Likewise, the energy content of the pellet diet was also measured and used to estimate the energy intake of the animals.
Energy expenditure (Ee) was estimated as the difference between energy intake (Ei) and accrual (Ea), since: Ei=Ee±Ea.

[2] = Body weight and lipid changes of overweight male Wistar rats in the 10-day period of treatment; format: in vivo; settings: 10-day treatment; oleoyl-estrone 10 micromol/kg daily gavage; CL-316243 1 mg/kg daily s.c. infusion
Excerpt: as §1, §2, §3
The rat corpses, partially exsanguinated were dissected. The stomach and intestines were cleaned of their contents. The remaining carcass was sealed into polyethylene bags, autoclaved and blended to a fine paste. This paste was analyzed for lipid content by extraction using trichloromethane/methanol and corrected by its water content. Lipid content in the paste was referred to whole in vivo body weight for comparison.
as §4

| Compound | contribution of internal reserves to fuel the energy expenditure [1] [%] | changes in energy expenditure versus control group (in words) [1] | loss of body energy [1] [kJ] | increase in energy expenditure ([1]; rats treated with the beta-3 agonist, alone or with oleoyl-estrone) [%] | decrease in food consumption [1] | loss of body weight [2] | loss of lipid (lipid stores) [2] [%] |
| --- | --- | --- | --- | --- | --- | --- | --- |
| C[C@H](Cc1ccc2c(c1)OC(C(=O)[O-])(C(=O)[O-])O2)NC[C@H](O)c1cccc(Cl)c1.[Na+].[Na+] [beta-3 agonist] | 28 | higher than that of the control group by more than one-third | 821 | 136 | did not show a significant loss of appetite | less than 3% | 42 |
| CCCCCCCC/C=C\CCCCCCCC(=O)Oc1ccc2c(c1)CC[C@@H]1[C@@H]2CC[C@]2(C)C(=O)CC[C@@H]12 [oleoyl-estrone, [3(Z)]-3-[(1-oxo-9-octadecenyl)oxy]-estra-1,3,5(10)-trien-17-one] | 19 | slight decrease | 354 | – | 32% | about 8% | 13 |

Reference: patent US20070049569A1, “Methods of using fatty-acid esters of estrogens and thermogenic compounds for reducing the body weight of a mammal and compositions containing the same” (Oleoyl-Estrone Developments SL, priority 2004, published 2007)
